From ChEMBL document CHEMBL3297725, “Acridone alkaloids from Glycosmis chlorosperma as DYRK1A inhibitors” (J Nat Prod, 2014)

Assays:
[1] = target: Dual specificity tyrosine-phosphorylation-regulated kinase 1A (Homo sapiens, UniProt Q13627); assay: Inhibition of DYRK1A (unknown origin) assessed as inhibition of phosphate incorporation into substrate in presence of radiolabeled ATP
[2] = target: Cyclin-dependent kinase 5 (Homo sapiens, UniProt Q00535); assay: Inhibition of CDK5 (unknown origin) assessed as inhibition of phosphate incorporation into substrate in presence of radiolabeled ATP
[3] = target: Cyclin-dependent kinase 1 (Homo sapiens, UniProt P06493); assay: Inhibition of CDK1 (unknown origin) assessed as inhibition of phosphate incorporation into substrate in presence of radiolabeled ATP
[4] = system: Casein kinase 1 delta/epsilon (Sus scrofa); assay: Inhibition of CK1 (porcine brain) assessed as inhibition of phosphate incorporation into substrate in presence of radiolabeled ATP
[5] = target: Dual specificity protein kinase CLK1 (Mus musculus) (UniProt P22518); assay: Inhibition of CLK1 (mouse recombinant) assessed as inhibition of phosphate incorporation into substrate in presence of radiolabeled ATP
[6] = target: Glycogen synthase kinase-3 (Homo sapiens, UniProt P49840+P49841); assay: Inhibition of GSK3 (unknown origin) assessed as inhibition of phosphate incorporation into substrate in presence of radiolabeled ATP; assay type: protein assay
[7] = target: Dual specificity tyrosine-phosphorylation-regulated kinase 1B (Homo sapiens, UniProt Q9Y463); assay: Inhibition of DYRK1B (unknown origin)
[8] = target: T1, Dual specificity tyrosine-phosphorylation-regulated kinase 3 (Homo sapiens, UniProt O43781); assay: Inhibition of DYRK3 (unknown origin)
T1 sequence (O43781 whole entry): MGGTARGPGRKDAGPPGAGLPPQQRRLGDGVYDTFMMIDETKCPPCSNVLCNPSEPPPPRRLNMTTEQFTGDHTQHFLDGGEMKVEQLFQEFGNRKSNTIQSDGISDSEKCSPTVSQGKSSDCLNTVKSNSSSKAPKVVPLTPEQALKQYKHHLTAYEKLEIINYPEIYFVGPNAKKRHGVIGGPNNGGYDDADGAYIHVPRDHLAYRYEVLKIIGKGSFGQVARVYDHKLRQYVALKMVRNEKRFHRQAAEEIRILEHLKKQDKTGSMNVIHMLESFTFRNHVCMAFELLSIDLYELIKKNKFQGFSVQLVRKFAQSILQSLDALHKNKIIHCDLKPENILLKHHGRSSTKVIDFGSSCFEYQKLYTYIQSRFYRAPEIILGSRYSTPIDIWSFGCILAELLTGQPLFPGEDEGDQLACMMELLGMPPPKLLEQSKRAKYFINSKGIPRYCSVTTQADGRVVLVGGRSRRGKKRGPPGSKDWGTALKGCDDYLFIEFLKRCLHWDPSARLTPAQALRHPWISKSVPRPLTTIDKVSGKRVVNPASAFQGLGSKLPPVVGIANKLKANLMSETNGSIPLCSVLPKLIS

[9] = Inhibition of CK1 delta/epsilon in porcine brain assessed as inhibition of phosphate incorporation using RRKHAAIGpSAYSITA and [gamma-33P]ATP as substrate after 30 mins by scintillation counting analysis; parameters: species or system Sus scrofa
[10] = target: Dual specificity tyrosine-phosphorylation-regulated kinase 1A (Rattus norvegicus, UniProt Q63470); assay: Inhibition of rat DYRK1A assessed as inhibition of phosphate incorporation using GRSRSRSRSRSR and [gamma-33P]ATP as substrate after 30 mins by scintillation counting analysis
[11] = target: Dual specificity protein kinase CLK2 (Homo sapiens, UniProt P49760); assay: Inhibition of CLK2 (unknown origin)
[12] = target: Dual specificity protein kinase CLK4 (Homo sapiens, UniProt Q9HAZ1); assay: Inhibition of CLK4 (unknown origin)
[13] = target: Glycogen synthase kinase-3 (Sus scrofa, UniProt B2LUN4+I6LNT8); assay: Inhibition of GSK3 alpha/beta in porcine brain assessed as inhibition of phosphate incorporation using YRRAAVPPSPSLSRHSSPHQSpEDEEE and [gamma-33P]ATP as substrate after 30 mins by scintillation counting analysis
[14] = target: T2, Dual specificity tyrosine-phosphorylation-regulated kinase 2 (Homo sapiens, UniProt Q92630); assay: Inhibition of DYRK2 (unknown origin)
T2 sequence (Q92630 whole entry): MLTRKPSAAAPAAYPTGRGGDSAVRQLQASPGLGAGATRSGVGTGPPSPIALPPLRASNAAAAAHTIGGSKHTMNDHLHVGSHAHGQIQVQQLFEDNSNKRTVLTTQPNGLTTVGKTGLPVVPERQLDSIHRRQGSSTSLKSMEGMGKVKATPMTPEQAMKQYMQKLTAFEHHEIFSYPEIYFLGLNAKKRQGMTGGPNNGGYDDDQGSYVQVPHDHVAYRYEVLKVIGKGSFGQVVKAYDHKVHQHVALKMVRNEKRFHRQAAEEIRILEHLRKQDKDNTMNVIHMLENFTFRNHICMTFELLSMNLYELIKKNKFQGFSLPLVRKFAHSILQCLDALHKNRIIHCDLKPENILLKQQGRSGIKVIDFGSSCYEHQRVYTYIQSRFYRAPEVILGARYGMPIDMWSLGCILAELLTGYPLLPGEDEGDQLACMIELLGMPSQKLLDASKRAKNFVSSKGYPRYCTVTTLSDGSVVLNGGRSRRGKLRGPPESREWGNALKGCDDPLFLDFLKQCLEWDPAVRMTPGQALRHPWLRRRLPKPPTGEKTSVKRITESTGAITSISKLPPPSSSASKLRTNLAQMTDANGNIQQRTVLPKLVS

[15] = target: CDK9/cyclin T1 (Homo sapiens, UniProt P50750); assay: Inhibition of CDK9/cyclin T (unknown origin); assay type: protein-complex assay
[16] = target: Dual specificity protein kinase CLK3 (Homo sapiens, UniProt P49761); assay: Inhibition of CLK3 (unknown origin)
[17] = target: CDK2/Cyclin A2 (Homo sapiens, UniProt P24941); assay: Inhibition of CDK2/cyclin A (unknown origin); assay type: protein-complex assay
[18] = target: Cyclin-dependent kinase 5/CDK5 activator 1 (Homo sapiens, UniProt Q00535); assay: Inhibition of CDK5/p25 (unknown origin) assessed as inhibition of phosphate incorporation using histone 1 and [gamma-33P]ATP as substrate after 30 mins by scintillation counting analysis; assay type: protein-complex assay
[19] = Inhibition of CDK1/cyclin B in starfish oocytes assessed as inhibition of phosphate incorporation using histone 1 and [gamma-33P]ATP as substrate after 30 mins by scintillation counting analysis; parameters: species or system Patiria pectinifera
[20] = target: Dual specificity protein kinase CLK1 (Mus musculus, UniProt P22518); assay: Inhibition of mouse recombinant GST-fused CLK1 expressed in Escherichia coli cells assessed as inhibition of phosphate incorporation using GRSRSRSRSRSR and [gamma-33P]ATP as substrate after 30 mins by scintillation counting analysis
Dual specificity protein kinase CLK1, sequence (P22518 whole entry, the tested form may be a part): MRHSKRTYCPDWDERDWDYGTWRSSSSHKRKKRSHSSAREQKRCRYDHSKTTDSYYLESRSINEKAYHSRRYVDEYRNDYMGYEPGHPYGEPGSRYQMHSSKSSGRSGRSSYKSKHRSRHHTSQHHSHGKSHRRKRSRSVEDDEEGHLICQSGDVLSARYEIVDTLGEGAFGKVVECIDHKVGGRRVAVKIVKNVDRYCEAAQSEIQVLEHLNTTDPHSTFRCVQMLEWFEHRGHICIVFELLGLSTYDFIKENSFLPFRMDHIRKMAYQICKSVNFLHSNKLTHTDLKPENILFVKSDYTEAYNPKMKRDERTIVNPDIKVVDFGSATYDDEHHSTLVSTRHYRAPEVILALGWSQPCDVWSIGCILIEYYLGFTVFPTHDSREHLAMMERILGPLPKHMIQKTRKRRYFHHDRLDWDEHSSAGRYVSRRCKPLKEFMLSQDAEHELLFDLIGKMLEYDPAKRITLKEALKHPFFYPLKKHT

Cyclin-dependent kinase 5, sequence (Q00535 whole entry): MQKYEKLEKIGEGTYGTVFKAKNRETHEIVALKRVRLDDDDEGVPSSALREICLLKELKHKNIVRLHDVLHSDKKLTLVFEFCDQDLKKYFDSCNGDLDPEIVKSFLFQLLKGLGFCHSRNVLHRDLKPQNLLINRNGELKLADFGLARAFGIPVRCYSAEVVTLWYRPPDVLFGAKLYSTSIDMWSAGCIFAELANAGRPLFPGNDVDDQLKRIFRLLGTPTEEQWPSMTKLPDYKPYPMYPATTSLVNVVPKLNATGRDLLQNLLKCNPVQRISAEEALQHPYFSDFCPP
Cyclin-dependent kinase 1, sequence (P06493 whole entry): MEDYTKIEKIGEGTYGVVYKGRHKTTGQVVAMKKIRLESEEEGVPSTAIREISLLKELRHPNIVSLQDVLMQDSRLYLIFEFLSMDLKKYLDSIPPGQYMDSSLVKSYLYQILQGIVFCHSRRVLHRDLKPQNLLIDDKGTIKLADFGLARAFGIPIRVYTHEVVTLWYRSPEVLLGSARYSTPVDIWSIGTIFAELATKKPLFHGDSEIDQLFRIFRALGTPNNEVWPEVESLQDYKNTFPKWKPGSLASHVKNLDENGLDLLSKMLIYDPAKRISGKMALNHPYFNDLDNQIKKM
Dual specificity protein kinase CLK1 (Mus musculus), sequence (P22518 whole entry, looked up): as the sequence (P22518 whole entry, the tested form may be a part) above
Dual specificity protein kinase CLK2, sequence (P49760 whole entry): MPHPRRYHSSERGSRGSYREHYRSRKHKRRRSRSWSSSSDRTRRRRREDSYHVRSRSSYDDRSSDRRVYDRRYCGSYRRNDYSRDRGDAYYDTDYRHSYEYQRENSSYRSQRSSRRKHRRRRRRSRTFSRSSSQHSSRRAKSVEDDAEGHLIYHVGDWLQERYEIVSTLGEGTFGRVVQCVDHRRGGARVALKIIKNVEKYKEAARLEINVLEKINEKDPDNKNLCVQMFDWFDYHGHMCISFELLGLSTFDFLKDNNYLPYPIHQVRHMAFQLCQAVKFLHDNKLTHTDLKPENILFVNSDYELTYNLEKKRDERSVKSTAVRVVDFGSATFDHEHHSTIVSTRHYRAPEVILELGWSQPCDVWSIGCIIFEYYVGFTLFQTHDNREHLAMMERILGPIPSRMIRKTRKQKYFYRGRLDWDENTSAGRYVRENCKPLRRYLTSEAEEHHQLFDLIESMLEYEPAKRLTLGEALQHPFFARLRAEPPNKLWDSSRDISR
Dual specificity protein kinase CLK3, sequence (P49761 whole entry): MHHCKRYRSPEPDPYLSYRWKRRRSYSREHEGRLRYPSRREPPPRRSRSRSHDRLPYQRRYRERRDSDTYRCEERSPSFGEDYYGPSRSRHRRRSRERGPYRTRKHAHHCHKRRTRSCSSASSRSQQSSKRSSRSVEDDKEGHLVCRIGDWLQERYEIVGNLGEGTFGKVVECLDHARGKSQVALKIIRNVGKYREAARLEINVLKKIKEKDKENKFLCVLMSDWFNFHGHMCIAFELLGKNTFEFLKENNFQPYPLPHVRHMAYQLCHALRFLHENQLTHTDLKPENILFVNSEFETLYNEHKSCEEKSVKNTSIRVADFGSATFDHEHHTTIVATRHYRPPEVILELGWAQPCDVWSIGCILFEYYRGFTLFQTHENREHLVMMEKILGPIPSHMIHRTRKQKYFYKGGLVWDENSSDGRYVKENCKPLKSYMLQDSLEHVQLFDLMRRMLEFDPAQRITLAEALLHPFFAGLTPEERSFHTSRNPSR
Dual specificity tyrosine-phosphorylation-regulated kinase 1B, sequence (Q9Y463 whole entry): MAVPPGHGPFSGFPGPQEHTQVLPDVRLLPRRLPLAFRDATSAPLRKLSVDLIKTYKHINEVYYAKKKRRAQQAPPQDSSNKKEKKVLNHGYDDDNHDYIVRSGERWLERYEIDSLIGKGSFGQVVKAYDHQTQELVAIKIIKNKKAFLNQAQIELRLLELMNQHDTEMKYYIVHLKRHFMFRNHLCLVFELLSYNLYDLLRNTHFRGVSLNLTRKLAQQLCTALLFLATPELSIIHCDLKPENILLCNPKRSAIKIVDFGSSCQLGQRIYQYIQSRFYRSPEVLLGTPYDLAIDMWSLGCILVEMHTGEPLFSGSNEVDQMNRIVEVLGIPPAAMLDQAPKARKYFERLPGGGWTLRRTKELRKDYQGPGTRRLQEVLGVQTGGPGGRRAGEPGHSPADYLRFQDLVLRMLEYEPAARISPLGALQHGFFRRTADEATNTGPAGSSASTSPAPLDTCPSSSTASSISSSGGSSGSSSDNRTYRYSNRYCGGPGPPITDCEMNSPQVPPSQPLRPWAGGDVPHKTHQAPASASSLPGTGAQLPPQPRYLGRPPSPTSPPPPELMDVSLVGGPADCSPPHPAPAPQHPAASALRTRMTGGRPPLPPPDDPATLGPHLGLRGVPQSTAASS
Dual specificity protein kinase CLK4, sequence (Q9HAZ1 whole entry): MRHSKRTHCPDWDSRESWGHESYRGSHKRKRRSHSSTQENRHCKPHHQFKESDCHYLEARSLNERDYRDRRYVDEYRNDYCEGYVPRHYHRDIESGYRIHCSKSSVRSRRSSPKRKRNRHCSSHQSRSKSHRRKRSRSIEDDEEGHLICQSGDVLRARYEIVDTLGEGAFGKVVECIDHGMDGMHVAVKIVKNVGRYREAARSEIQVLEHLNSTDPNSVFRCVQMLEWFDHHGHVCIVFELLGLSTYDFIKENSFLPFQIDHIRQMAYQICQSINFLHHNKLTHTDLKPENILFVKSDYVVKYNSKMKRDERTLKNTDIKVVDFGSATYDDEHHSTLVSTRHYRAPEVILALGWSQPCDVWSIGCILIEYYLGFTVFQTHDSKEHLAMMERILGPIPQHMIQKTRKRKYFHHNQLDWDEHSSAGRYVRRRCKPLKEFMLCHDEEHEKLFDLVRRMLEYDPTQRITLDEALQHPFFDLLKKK
Cyclin-dependent kinase 5/CDK5 activator 1, sequence (Q00535 whole entry): as the sequence (Q00535 whole entry) above
Cyclin-dependent kinase 5/CDK5 activator 1, sequence (Q15078 whole entry, further chain): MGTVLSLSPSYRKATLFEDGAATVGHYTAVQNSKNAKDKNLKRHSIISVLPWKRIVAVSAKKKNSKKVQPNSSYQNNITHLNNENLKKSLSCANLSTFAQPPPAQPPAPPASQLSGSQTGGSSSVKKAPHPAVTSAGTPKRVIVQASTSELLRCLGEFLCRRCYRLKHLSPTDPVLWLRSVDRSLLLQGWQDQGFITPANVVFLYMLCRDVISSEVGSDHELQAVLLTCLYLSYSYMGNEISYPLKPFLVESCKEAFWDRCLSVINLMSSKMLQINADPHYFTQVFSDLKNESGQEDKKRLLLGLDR
CDK9/cyclin T1, sequence (O60563 whole entry): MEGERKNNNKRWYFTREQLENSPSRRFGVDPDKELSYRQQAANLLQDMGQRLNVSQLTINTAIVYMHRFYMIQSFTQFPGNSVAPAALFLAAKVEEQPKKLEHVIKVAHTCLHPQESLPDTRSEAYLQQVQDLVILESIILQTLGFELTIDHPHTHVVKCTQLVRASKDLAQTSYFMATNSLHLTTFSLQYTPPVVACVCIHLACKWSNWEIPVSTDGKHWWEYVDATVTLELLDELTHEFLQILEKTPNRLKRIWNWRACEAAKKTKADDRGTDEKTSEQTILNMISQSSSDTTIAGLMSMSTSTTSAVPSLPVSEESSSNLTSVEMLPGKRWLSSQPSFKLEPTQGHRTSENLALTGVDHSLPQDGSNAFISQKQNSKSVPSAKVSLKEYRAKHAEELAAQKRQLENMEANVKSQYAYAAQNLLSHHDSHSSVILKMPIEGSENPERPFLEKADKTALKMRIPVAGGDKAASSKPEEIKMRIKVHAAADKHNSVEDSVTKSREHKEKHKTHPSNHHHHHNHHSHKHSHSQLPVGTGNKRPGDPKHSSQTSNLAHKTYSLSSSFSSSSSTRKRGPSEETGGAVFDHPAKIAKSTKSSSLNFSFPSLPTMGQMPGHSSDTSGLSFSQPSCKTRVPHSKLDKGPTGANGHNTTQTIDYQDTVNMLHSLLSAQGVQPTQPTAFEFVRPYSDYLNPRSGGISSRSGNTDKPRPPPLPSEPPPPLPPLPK
CDK9/cyclin T1, sequence (P50750 whole entry): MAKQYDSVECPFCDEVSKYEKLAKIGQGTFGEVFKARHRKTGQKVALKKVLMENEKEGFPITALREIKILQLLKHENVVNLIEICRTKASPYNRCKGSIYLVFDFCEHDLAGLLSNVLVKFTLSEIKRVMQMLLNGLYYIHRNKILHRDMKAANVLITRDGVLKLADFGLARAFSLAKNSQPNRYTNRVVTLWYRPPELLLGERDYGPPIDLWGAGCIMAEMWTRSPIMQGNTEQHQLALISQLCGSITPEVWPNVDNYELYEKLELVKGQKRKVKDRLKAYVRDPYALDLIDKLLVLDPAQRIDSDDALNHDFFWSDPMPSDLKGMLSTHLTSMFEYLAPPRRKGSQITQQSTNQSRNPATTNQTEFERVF

SMILES	IC50 [1] [nM]	IC50 [2] [nM]	IC50 [3] [nM]	IC50 [4] [nM]	IC50 [5] [nM]	IC50 [6] [nM]	IC50 [7] [nM]	IC50 [8] [nM]	IC50 [9] [nM]	IC50 [10] [nM]	IC50 [11] [nM]	IC50 [12] [nM]	IC50 [13] [nM]	IC50 [14] [nM]	IC50 [15] [nM]	IC50 [16] [nM]	IC50 [17] [nM]	IC50 [18] [nM]	IC50 [19] [nM]	IC50 [20] [nM]
Cn1c2c(O)cccc2c(=O)c2c3c(c4c(c21)C=CC(C)(C)O4)C=C(O)C(C)(C)O3	> 10000	> 10000	> 10000	> 10000	> 10000	> 10000														
Cn1c2c(O)cccc2c(=O)c2c3occc3c3c(c21)C=CC(C)(C)O3	5700	> 10000	> 10000	> 10000	7000	> 10000														
COc1c(O)ccc2c(=O)c3c(O)cc4c(c3[nH]c12)C=CC(C)(C)O4	75	9000	5300	> 10000	170	2000	350	1200	8700	90	680	220	710	1700	820	2300	8200	> 10000	1100	210
O=C1Nc2cc(Br)ccc2/C1=C1/Nc2ccccc2/C1=N\O [6BIO]	52																			
CC1(C)C=Cc2c(cc(O)c3c(=O)c4cccc(O)c4[nH]c23)O1 [ATOLAPHYLLIDINE]	2200	> 10000	> 10000	> 10000	≥ 10000	> 10000														
